Measurements published in patent publication US6338963B1, “Use of carbon monoxide dependent guanylyl cyclase modifiers to stimulate neuritogenesis” (NeoTherapeutics, Inc., priority 1994, dated 2002).
Counter-ions that a name gives are not always drawn. Marks after values point to notes of the source that are not given here.

What was measured:
[1] = tested on: cultured neurons from rat cerebral cortex; experiment: NMDA-induced toxicity in cultured rat cortical neurons, astrocyte conditioned medium; format: cell-based
Method: In these experiments, cultured neurons were prepared from rat cerebral cortex. In these cultures the NMDA pulse (100 μM for 10 min) provoked about 80% neuronal death (measured by Trypan blue cell staining or LDH activity). Separately, cultured astrocytes were treated for 6 hours with AIT-082. Then, the medium containing the drug was replaced with fresh medium without the drug and the astrocyte cultures were maintained in this medium for the next 24 hours. This medium represented the CM and was added to neurons soon after the toxic pulse with NMDA. The addition of CM partly counteracted the toxic effects caused by NMDA, reducing the neuronal damage by about 50%. If the medium was boiled for 20 min at 100° C. prior to addition to NMDA-damaged neurons, it completely lost the protective activity. […] To verify whether the neuroprotection caused by AIT-082 was ascribable to the production of TGFβ2 or NGF, antibodies to TGFβ2 or to NGF (100 ng/ml) were added together with CM.
Conversely, when DPCPX (100 nm) was added to astrocyte cultures together with AIT-082, the neuroprotective effect of the resulting CM deriving from the culture of the astrocytes with AIT-082 was reduced by only 20%, as compared to the neuroprotective effect of CM derived from astrocytes exposed to AIT-082 alone (assumed as equal to 100%).

[2] = tested on: cultured rat hippocampal neurons; experiment: NMDA-induced toxicity in cultured rat hippocampal neurons, astrocyte conditioned medium; conditions: NMDA 100 μM pulse of 10 min.
Method: To determine whether or not AIT-082 afforded in vitro neuroprotection, the effect of AIT-082 on toxicity induced by N-methyl-D-aspartate (NMDA) in cultured rat hippocampal neurons was studied.
To determine whether AIT-082 protected against neuronal toxicity induced by NMDA, and whether astrocytes might be involved, cultured astrocytes were exposed to AIT-082 for 6 hr. The drug was then removed and cultures were kept in fresh medium for the following 20 hr. This conditioned medium was then added to primary cultures of rat hippocampal neurons on the seventh day in vitro, immediately after they had been exposed to a toxic pulse of NMDA.
It was next evaluated whether the addition of conditioned medium (CM) deriving from astrocyte cultures treated with 100 μM AIT-082 generated protection against damage induced by a toxic pulse with 100 μM NMDA in cultured neurons.
The effects of NMDA are shown in FIG. 66A on cortical cells and in FIG. 66B for hippocampal cells.

rat caudate nuclei = experiment: GAD activity in rat caudate nuclei damaged by NMDA; format: in vivo; conditions: NMDA 25-300 nmoles infused unilaterally, maximal lesion, 8 to 10 days
Method: The effect of AIT-082 on in vivo neuroprotection was also assessed by assaying for glutamic acid decarboxylase (GAD) activity.
GAD activity in rat caudate nuclei was damaged in vivo by NMDA. Increasing amounts of NMDA (25-300 nmoles) were unilaterally infused into caudate nuclei of rats. Eight to 10 days after the injections, glutarnic acid decarboxylase (GAD) activity was assayed, as an index of the loss of GABA-ergic neurons. NMDA produced a dose-dependent lesion, which at its maximal extension caused a reduction of GAD activity by 50% in comparison with that of contralateral sham-operated nuclei (control). […] The necrotic areas are in white, whereas the shadow is the surrounding edema GAD activity was evaluated by measuring the ex novo formation of [^3H]GABA from dissected striata exposed to 1 μCi of [^3H]glutamate for 1 hour at 37° C. GABA was assayed by HPLC with fluorescence detection and the [3H]label associated with GABA was measured.

Swiss Webster mice [3] = experiment: Win-shift T-maze memory test, Swiss Webster mice; format: in vivo; conditions: 90-second inter-trial interval, THA 1.25 mg/kg i.p.
Method: Male Swiss Webster mice six months (young adult) and eleven months (old) of age, obtained from the National Institute on Aging, were maintained in individual cages, on a […] light/dark cycle with continuous access to water. Food was limited so that the mice stabilized at 80% of free feeding weight. Mice were weighed and handled daily for one week. The win-shift model was run as described in the literature and consists of a T-maze in which the correct response alternates after each correct trial. The interval between trials is varied and allows for the determination of the longest period between trials that a subject can remember the correct response on the previous trial. This allows the measure of the duration of the memory trace. […] The reward goal box is alternated after each correct trial. Ten trials per mouse are run each day. […] The latency time to leave the start box is recorded as a measure of motivation, the running time (the time from leaving the start box to reaching the goal box) is recorded as a measure of performance, and the number of correct responses as a measure of memory.
(§1) The drugs used in this example are 4-((3-(1,6-dihydro-6-oxo-9-purin-9-yl)-1-oxopropyl)amino) benzoic acid (AIT-082), as an exemplary potassium salt, tacrine hydrochloride (tetrahydroaminoacridine, THA, Sigma Chemical Co., St. Louis, Mo.), and physostigmine, hemisulfate salt (PHY, Sigma Chemical Co., St. Louis, Mo.). The drugs were dissolved in saline and prepared fresh daily. All injections were made at a volume of 0.1 ml/10 grams body weight. When testing drug effects, intraperitoneal (i.p.) injections of AIT-082 or THA were made one hour prior to the start of testing. Due to its shorter duration of action, PHY was injected 30 minutes prior to testing. Control subjects receive a similar injection of saline (vehicle).
To determine the duration of the memory trace, subjects were administered drug or saline and 30 minutes (PHY) or 1 hour (AIT-082 or THA) later they were given a single reference run with the milk reward in both goal boxes. After the indicated inter-trial delay, subjects were returned to the start box and given the first test trial with the milk reward only in the goal box opposite to the one entered on the previous correct trial. The subjects were given 10 trials with the reward alternating only after correct responses.
To determine if tolerance to the biological effects of AIT-082 developed, drug or saline was administered daily for 18 days prior to the testing in the standard win-shift paradigm.

Swiss Webster mice [4] = experiment: Locomotor activity (spontaneous movements), Swiss Webster mice; format: in vivo; conditions: THA 1.25 mg/kg
Method: The activity of AIT-082 was compared with tacrine (THA) and physostigmine (PHY), experimental anticholinesterase agents which enhance memory in animals. The drugs were also evaluated for their effects on locomotor activity. In the win-shift memory paradigm, AIT-082 was evaluated for its ability to induce tolerance after 18 days of drug administration. In addition AIT-082 was tested for its activity to modify learning in a modified T-maze discrimination task.
as §1

NGF = NGF release from rat cultured astrocytes (ELISA); format: cell-based
Method: The dose response for AIT-082 and guanosine on nerve growth factor and S100β protein release from rat culture astrocytes is shown in FIG. 30. NGF was assayed by a double-site ELISA, using a monoclonal anti-NGF antibody, coupled or not to β-galactosidase according to the method of I. D. Laviada et al., “Phosphatidylcholine-Phospholipase C Mediates the Induction of Nerve Growth Factor in Cultured Glial Cells,” FEBS Lett. 364: 301-304 (1995).
(§2) The NGF and S100β protein were measured by removing the cultured medium for the ELISA assays at each indicated time point.
(§3) NGF and TGFβ2 levels were assayed in the culture medium of the astrocytes by specific ELISA assays using kits from Roche (Germany) and Promega (USA) respectively. NGF basal levels were 56.3±3.2 pg/ml. TGFβ2 levels were 9.1±0.06 pg/ml.
(§4) In FIG. 61, the dose-response curves of NGF and TGFβ2 release from rat cultured astrocytes as the result of exposure to AIT-082 are shown.

S100β protein = S100β protein release from rat cultured astrocytes (ELISA); format: cell-based; conditions: cycloheximide 0.5 μg/ml, AIT-082 100 μ
Method: The S100β protein was measured by using an ELISA as described in A. Aurell et al., “The S-100 Protein in Cerebrospinal Fluid: A Simple ELISA Method,” J.Neurol. Sci. 89: 157-164 (1989).
as §2

TGFβ2 = TGFβ2 release from rat cultured astrocytes (ELISA); format: cell-based; conditions: 100 nm wortmannin, 10 μM PD098,059 or 500 ng/ml CHX added 30 min before and kept 24 hours with 100 μM AIT-082
Method: as §3, §4

Compound: CCCn1c(=O)c2[nH]c(C3CCCC3)nc2n(CCC)c1=O [DPCPX, 8-cyclopentyl-1,3-dipropylxanthine]
- reduction of neuroprotective effect of resulting CM ([1]; DPCPX 100 nm added to astrocyte cultures together with AIT-082): 20%
- effect on neuroprotective effect of astrocyte-derived CM ([1]; DPCPX 100 nm added with CM to injured cortical neurons): did not modify the neuroprotective effect

Compound: CN[C@H](CC(=O)O)C(=O)O [NMDA, N-methyl-D-aspartate]
- death of the cultured neurons [2]: ~75%
- Count of Dead Cells (Trypan Blue Staining) ([2]; within 24 hours): 401.4 ± 27.3
- LDH ([2]; within 24 hours): 262.8 ± 13.4 mOD/min
- neuronal death ([1]; NMDA pulse 100 μM for 10 min, Trypan blue or LDH): about 80%
- reduction of GAD activity versus contralateral sham-operated nuclei (rat caudate nuclei): 50%

Compound: Nc1c2c(nc3ccccc13)CCCC2 [THA, tacrine hydrochloride, reference compound]
- Win-shift Memory Test, Correct responses (Swiss Webster mice [3]): 7.1* Correct responses/10 trials
- Locomotor Activity (Swiss Webster mice [4]): 671* Spontaneous movements per hour

Compound: C[C@@H]1C[C@@H]([C@H](O)CC2CC(=O)NC(=O)C2)C(=O)[C@@H](C)C1 [cycloheximide, reference compound]
- effect of inhibitor on AIT-082-induced accumulation of NGF (NGF; 100 nm wortmannin, 10 μM PD098,059 or 500 ng/ml CHX added 30 min before and kept 24 hours with 100 μM AIT-082): partly inhibited
- effect of cycloheximide on AIT-082-evoked release of NGF (NGF; cycloheximide 0.5 μg/ml, AIT-082 100 μ): abolished the stimulatory effect of AIT-082
- effect of cycloheximide on AIT-082-evoked accumulation of S100β protein (S100β protein): only slightly modified
- effect of inhibitor on AIT-082-induced accumulation of TGFβ2 (TGFβ2): partly inhibited
